Like-named read-outs stand apart in the source and are kept apart here.
Columns and labels:
[1] = tested on: induction of effector macrophage by contact of human PBMC with lipopolysaccharide; assay: SPFC production by LPS stimulation (Test Example 1); assay type: cell-based
Experimental: A suppressive effect of the test compound to effector macrophage induction was investigated in vitro by an induction and production system of spontaneous plaque-forming cell (SPEC) mentioned in M. Ishibashi, S. Jiang, Y. Kokado, S. Takahara, T. Sonoda: Immunopharmacologic effects of immunosuppressive agents explored by a new effector generation assay. Transplant Proc., 21: 1854-1858, 1989.
Heparin-added peripheral blood (40 ml) was collected from a healthy person and the same amount of EDTA-added physiological saline was added. PBMC were obtained by a specific gravity centrifugal method using Ficoll-Hypaque (manufactured by Pharmacia Fine Chemicals). Self-plasma was added thereto and allowed to stand at 37° C. for 10 minutes and platelets were removed by a low-speed centrifugal separation. RPMI 1640 liquid containing 15 μg/ml of gentamicin and 2 mM L-glutamine was used for washing the PBMC. Concentration of the PBMC was adjusted to 2×10^6 cells/ml using the same liquid.
Each 200 μl of a solution containing 2×10^6 PBMC/ml prepared in the step 1 were added to each well of a micro test plate, lipopolysaccharide (hereinafter, abbreviated as LPS) was diluted with the RPMI 1640 liquid to make the final concentration 80 μg/ml and the said LPS solution was added to each well of the 200 μl-micro test plate. Further, each 50 μl of human serum of type AB were added so as to make the concentration 10% by weight. Two such micro test plates were prepared.
After that, to the above two micro test plates was added a solution where the test compound was diluted with 1% by weight of DMSO so as to make the concentration of the test compound 1 μM. Similarly were prepared each two micro test plates where the final concentrations of the test compound were 0.1 μM, 0.01 μM and 0.001 μM.
The culture liquid prepared as such was incubated for 6 days at 37° C. in 5% CO2.
The effector macrophage induced after the incubation was all recovered using a rubber-policeman (spatula made of rubber). A Hanks solution containing 5 μg/ml of gentamicin was used for washing and, using the said solution, there was prepared a solution where the concentration of the induced effector macrophage was 2×10^6 per ml.
With regard to autologous erythrocytes, those which were preserved at 4° C. in a phosphate physiological saline (hereinafter, abbreviated as PBS) to which 0.1% by weight of AB serum and autologous erythrocytes obtained from PBMC separation were used were used. The preserved autologous erythrocytes were washed for three times with a Hanks solution to which no serum was added and made into a solution of 4% by weight concentration using the said Hanks solution. Poly-L-lysine was added to a Terasaki plate and washed with PBS every 20 minutes at 37° C., the above-mentioned autologous erythrocyte solution was added thereto immediately, the mixture was allowed to stand at 37° C. for 30 minutes and the erythrocytes which were not adhered to the plate were removed to prepare a Terasaki plate to which self-erythrocytes in a monolayer were adhered.
A Hanks solution (4 μl) was added to the said Terasaki plate, 4 μl of a solution containing the induced effector macrophage obtained in the step 3 were added thereto and the mixture was allowed to stand at 37° C. for 2 hours. After completion of the reaction, it was fixed by formalin. Numbers of the produced SPFC which were adhered or phagocytized were measured.
A mean SPFC production number was calculated from the measured values of SPFC production when the concentration of the test compound was the same. SPFC production number per 1×10^6 of the induced effector macrophage was calculated and, from the recovered induced effector macrophage numbers, total SPFC production amount (S2) was calculated.
As a control, no test compound was added and the same operation as above was carried out to calculate the total SPFC production amount (S1). […]

[2] = Acute and chronic toxicity tests (Test Example 5); assay type: in vivo; conditions: subcutaneously 30 mg/kg/day for ten days
Experimental: Acute and Chronic Toxicity Tests
Toxicity test of benzyl 2-chloro-5-oxotetrahydrofuran-2-carboxylate represented by the formula (6-1) manufactured in Example 8 and ethyl 2-ketoglutarate represented by the formula (9-1) was carried out.

[3] = tested on: induction of effector macrophage by contact of human PBMC with mitomycin-treated human PBMC (allo-MLC); assay: SPFC production by allo-MLC stimulation (Test Example 2); assay type: cell-based; conditions: for functional group (selective suppression of SPFC production by allo-MLC or LPS stimulation): summary of Table 1
[4] = tested on: kidney of chronic puromycin nephrosis rat; assay: Puromycin chronic nephrosis model in rat (CPN, Test Example 4); assay type: in vivo; design: key to Suppressive Effect to Glomerular Lesion / Suppressive Effect to Lesion of Tubulointerstitial Tissue: ∘: available; Δ: somewhat available; x: not available
Experimental: Evaluation Using Puromycin Chronic Nephrosis Model in Rat
Male SD rat of 8 weeks age of about 250 g was used and […] of puromycin were intravenously administered once according to a method of Diamond, et al. (J. R. Diamond, I. Pesek, S. Ruggeri, M. J. Karnovsky: Essential fatty acid deficiency during acute puromycin nephrosis ameliorates late renal injury. Am. J. Physiol, 257: F798˜F807, 1989). There was induced a chronic puromycin nephrosis rat where albuminuria increased from about tenth to twelfth week. After eighth week from administration of puromycin, each of compound (9-1) and compound (6-1) was subcutaneously injected at the dose of 30 mg/kg/day everyday until the 22nd week.
As a functional evaluation of kidney, albumin in urine was measured every week using a kit for the measurement of albumin. On the 22nd week, the rat was killed and anatomized to observe functional and morphological changes of kidney.

[5] = tested on: obstruction-released kidney of male SD rats; assay: Obstruction release model after complete obstruction of unilateral ureter for 14 days (UUO/Release, Test Example 3); assay type: in vivo, rat; design: key to Suppressive Effect to Glomerular Lesion / Suppressive Effect to Lesion of Tubulointerstitial Tissue: ∘: available; Δ: somewhat available; x: not available; conditions: for Suppressive Effect to Glomerular Lesion / Suppressive Effect to Lesion of Tubulointerstitial Tissue: Experimental Model of Rat: UUO/Release
Experimental: Obstruction Release Model after Complete Obstruction of Unilateral Ureter for 14 Days
Experimental models were prepared by a method devised and established by Ishibashi (Michio Ishibashi, et al.: The Japanese Journal of Nephrology, 42: 248, 2000) using male SD rats of 8-9 weeks age and about 280 g. Thus, the rat was laparotomized under anesthetization with ether and ureter was ligated with 7-0 Nylon at the height of the margin of lower pole of left kidney to close the abdomen. On the 14th day after obstruction, the obstruction was released and urinary passage was reconstructed using a cuff. Thus, after 14 days, the part of ligated obstructed ureter was resected, a polyethylene tube of 25 gages (manufactured by Nippon Sherwood) was used as a cuff and inserted into and retained at the lumen from the cut end of the lower normal ureter, then the cuff was also retained in the expanded upper ureter and each of them was ligated and fixed by 7-0 Nylon to reconstruct the urinary passage. At the same time, the right kidney at the opposite side was excised. After the release of the obstruction, body weight was measured, blood was collected on the 2nd day, 5th day and 7th day from the release to measure serum creatinine, then the rat was sacrificed under anesthetization and the left obstruction-released kidney was excised. With regard to the excised kidney, there were carried out measurement of weight of the kidney and pathological test for the kidney.
An in vivo biological test was carried out for the γ-lactone derivatives according to the present invention using the above models. With regard to the test compound, bulk powder of the test compound was dissolved in an aseptic physiological saline together with gum arabic and the final concentration of gum arabic was 5%(vol/vol). The concentration of the test compound 30 mg/ml was suspended in 5% gum arabic-saline solution. The preparation was subcutaneously injected at the dose of 30 mg/kg every day throughout the experiment. With regard to the test compound, there were used (9-1), (4-2) and (7-3) as the compounds of group I suppressing the SPFC production by allo-MLC stimulation, i.e., the compounds which selectively suppress the induction of effector macrophage in the presence of allo-MLC while there was used (3-2) as the compound of group II suppressing the SPFC production by LPS stimulation, i.e., the compounds which selectively suppress the induction of effector macrophage in the presence of LPS.
In the Table, “functional classification” of the compound means the above group I, group II and group III. “Compound” means the compound bearing each of the above-mentioned compound numbers. The fact whether glomerular lesion was suppressed was judged by the ameriolation of the lesions such as thickness of wall of Bowman's capsule, hyperplasia of mesangial cells and glomerular sclerosis. The fact whether lesion of tubulointerstitial tissue was suppressed was judged by the ameriolation of the lesions such as thickness of basement membrane of tubules, cellular infiltration and fibrosis of interstitial tissue. In the table, “control” is the result when the same test as above was carried out using 5% gum arabic only which is a solvent.
In order to further confirm whether the preventive and therapeutic effect of the γ-lactone derivatives of the present invention to the target cell damage is selective, (7-3) of the group I and (6-1) of the group II were used as test compounds and they were subcutaneously injected at the dose of 30 mg/kg every day and compared with the control group. With regard to the control group, only 5% gum arabic which is a solvent was used and the same test as above was carried out.

[6] = tested on: lesion of tubulointerstitial tissue / glomerulus; assay: Suppression of renal lesion in vivo by active metabolites (model not stated)
[7] = 144 h, human PBMC with LPS 80 μg/ml, incubated 6 days, Table 1, read-out: SPFC Production Inhibiting Concentration by LPS Stimulation (μM: IC50)
[8] = Homo sapiens, Table 5, read-out: Inhibiting Concentration for SPEC Production by LPS Stimulation (μM: IC50)
[9] = 144 h, human PBMC with mitomycin-treated human PBMC, incubated 6 days, Table 1, read-out: SPFC Production Inhibiting Concentration by all-MLC Stimulation (μM: IC50)
[10] = Homo sapiens, Table 5, read-out: Inhibiting Concentration for SPEC Production by allo-MLC Stimulation (μM: IC50)
[11] = 30 mg/kg/day subcutaneously from 8th to 22nd week after puromycin
[12] = 30 mg/kg subcutaneously every day, Table 2

| Compound | IC50 [1, 7] [µM] | IC50 [1, 8] [µM] | toxicity finding [2] | IC50 [3, 9] [µM] | IC50 [3, 10] [µM] | functional group (selective suppression of SPFC production by allo-MLC or LPS stimulation) [3] | suppression of glomerular lesion ([4]; 30 mg/kg/day subcutaneously) | Rate of Cases where Glomerular Lesion was Suppressed [4, 11] | Rate of Cases where Lesion of Tubulointerstitial Tissue was Suppressed [4, 11] | Suppressive Effect to Glomerular Lesion ([4]; Experimental Model of Rat: CPN) | Suppressive Effect to Lesion of Tubulointerstitial Tissue ([4]; Experimental Model of Rat: CPN) | Suppressive Effect to Glomerular Lesion [5] | Suppressive Effect to Lesion of Tubulointerstitial Tissue [5] | selectivity of the suppressive effect on renal lesions ([5]; 30 mg/kg subcutaneously every day) | Rate of Cases where Glomerular Lesion was Suppressed [5, 12] | Rate of Cases where tubulointerstitial Lesion was Suppressed [5, 12] | Serum Creatinine level (mg/dl) on the 7th Day from Release of Obstruction [5, 12] [mg/dL] | Weight of Kidney (g) on the 7th Day from Release of Obstruction [5, 12] [g] | suppression of SPFC production by LPS stimulation [1] | suppression of lesion of glomerulus in vivo [6] |
| --- | --- | --- | --- | --- | --- | --- | --- | --- | --- | --- | --- | --- | --- | --- | --- | --- | --- | --- | --- | --- |
| O=C1CCC(Cl)(C(=O)OCc2ccccc2)O1 (stereo not drawn) [(6-1), Benzyl 2-chloro-5-oxotetrahydrofuran-2-carboxylate] | 0.001 | 0.001 | an increase in weights of the liver and the spleen in a light degree | > 1 | > 1 | group II | well suppressed | 67% (4/6) | 17% (1/6) | ∘ | x |  |  |  |  |  |  |  |  |  |
| O=C1CCC(F)(C(=O)OCc2ccccc2)O1 (stereo not drawn) [(6-2), Benzyl 2-fluoro-5-oxotetrahydrofuran-2-carboxylate] | 0.001 | 0.001 |  |  |  | group II |  |  |  |  |  | ∘ | x |  |  |  |  |  |  |  |
| O=C1OC(Cl)(C(=O)OCc2ccccc2)c2ccccc21 (stereo not drawn) [(7-3), Benzyl 1-chloro-3-oxo-1,3-dihydro-isobenzofuran-1-carboxylate] | > 1 | 0.01 |  | 0.01 | 0.01 | group I |  |  |  |  |  | x | ∘ | selective suppressive effect | 25% (1/4) | 100% (4/4) | 2.0 ± 0.6 | 2.72 ± 0.47 |  |  |
| benzyl 2-ketoglutarate [(9-2)] |  |  |  |  |  |  |  |  |  |  |  |  |  |  |  |  |  |  | selectively suppresses | able to suppress |

Reference: patent publication US20050143453A1, “Selective preventing and therapeutic agents for progressive lesion after organic damage” (priority 2000, published 2005)
